{"source": "patent US20070191334A1", "about": "“Tricyclic imidazopyridines” (ALTANA PHARMA AG, priority 2004, published 2007)", "data": [{"test_system": "pentagastrin-stimulated acid secretion of the perfused rat stomach", "test": "Secretion-inhibiting action on the perfused rat stomach (pentagastrin-stimulated acid secretion, intraduodenal administration in vivo)", "conditions": "Table A, dose 1 μmol/kg i.d., anesthetized CD rat", "source_text": "Testing of the Secretion-Inhibiting Action on the Perfused Rat Stomach\nIn Table A which follows, the influence of the compounds of the formula 1 according to the invention on the pentagastrin-stimulated acid secretion of the perfused rat stomach after intraduodenal administration in vivo is shown.\nIn Table B which follows, the influence of the compounds of the formula 1-a according to the invention and of their optical antipodes of the formula 1-b on the pentagastrin-stimulated acid secretion of the perfused rat stomach after intraduodenal administration in vivo is shown.\nThe abdomen of anesthetized rats (CD rat, female, 200-250 g; 1.5 g/kg i.m. urethane) was opened after tracheotomy by a median upper abdominal incision and a PVC catheter was fixed transorally in the esophagus and another via the pylorus such that the ends of the tubes just projected into the gastric lumen. The catheter leading from the pylorus led outward into the right abdominal wall through a side opening.\nAfter thorough rinsing (about 50-100 ml), warm (37° C.) physiological NaCl solution was continuously passed through the stomach (0.5 ml/min, pH 6.8-6.9; Braun-Unita I). The pH (pH meter 632, glass electrode EA 147; φ=5 mm, Metrohm) and, by titration with a freshly prepared 0.01N NaOH solution to pH 7 (Dosimat 665 Metrohm), the secreted HCl were determined in the effluent in each case collected at an interval of 15 minutes.\nThe gastric secretion was stimulated by continuous infusion of […] (=1.65 ml/h) of i.v. pentagastrin (left femoral vein) about 30 min after the end of the operation (i.e. after determination of 2 preliminary fractions). The substances to be tested were administered intraduodenally in a 2.5 ml/kg liquid volume 60 min after the start of the continuous pentagastrin infusion. The body temperature of the animals was kept at a constant 37.8-38° C. by infrared irradiation and heat pads (automatic, stepless control by means of a rectal temperature sensor).", "units": {"Inhibition of acid secretion (%)": "%"}, "values": [{"smiles": "COCCNC(=O)c1c(C)nc2c3c(c(C(=O)N(C)C)cn12)CCC(c1ccccc1)O3", "note": "(centres unmarked) [Example 4, 2-Methyl-9-phenyl-7H-8,9-dihydro-pyrano[2,3-c]imidazo[1,2-a]pyridine-3,6-dicarboxylic acid 3-[(2-methoxyethyl)amide]6-dimethylamide]", "Inhibition of acid secretion (%)": ">40"}, {"smiles": "CC#CC(=O)c1c(C)nc2c3c(c(C(=O)N(C)C)cn12)CCC(c1ccccc1)O3", "note": "(centres unmarked) [Example 6, 2-Methyl-3-(1-oxo-2-butynyl)-9-phenyl-7H-8,9-dihydro-pyrano[2,3-c]imidazo[1,2-a]pyridine-6-carboxylic acid dimethylamide]", "Inhibition of acid secretion (%)": ">40"}, {"smiles": "CC(=O)c1c(C)nc2c3c(c(C(=O)N(C)C)cn12)CCC(c1ccccc1)O3", "note": "(centres unmarked) [Example 9, 3-Acetyl-2-methyl-9-phenyl-7H-8,9-dihydro-pyrano[2,3-c]imidazo-[1,2-a]pyridine-6-carboxylic acid dimethylamide]", "Inhibition of acid secretion (%)": ">40"}, {"smiles": "Cc1nc2c3c(c(C(=O)N4CCC4)cn2c1C)CCC(c1ccccc1)O3", "note": "(centres unmarked) [Example 11, (2,3-Dimethyl-9-phenyl-7H-8,9-dihydro-pyrano[2,3-c]-imidazo[1,2-a]pyridin-6-yl)-azetidin-1-yl methanone]", "Inhibition of acid secretion (%)": ">70"}, {"smiles": "Cc1nc2c3c(c(C(=O)NC4CC4)cn2c1C)CCC(c1ccccc1)O3", "note": "(centres unmarked) [Example 13, 2,3-Dimethyl-9-phenyl-7H-8,9-dihydro-pyrano[2,3-c]-imidazo[1,2-a]pyridine-6-carboxylic acid cyclopropylamide]", "Inhibition of acid secretion (%)": ">70"}]}]}
